Data on one substance can be found in patent publication US20230380460A1 (priority 2020, published 2023).

Common to all, as to assay type: cell-based
Assay [1] relates to total flora (total plate count). Put plainly: Spoilage analysis of cooked emulsified sausage: total plate count. The following applies: cooked emulsified sausage during storage. The procedure:
(§1) A part was inoculated on surface with Listeria monocytogenes for the challenge test and the other part was kept safe for shelf life microbiological study as well as organoleptic and physical characterization. Cooked emulsified sausages were then stored in vacuum packaging.
(§2) Microbiological analysis was performed according to current standard EC regulation 2073/2005, at d0 after packaging, several days during the storage (from D4 to D7 or D14 according to the studies).
(§3) For cooked emulsified sausage, 14 days of shelf-life with 7 days of storage at 4° C. and 7 days at 8° C., to simulate a break in the cold chain (standardized method NF V01-003).
(§4) Group of microorganisms counts performed are listed below: • Total plate count (NF EN ISO 4833-1), • Lactic acid bacteria (NF ISO 15214) both mesophilic and psychotrophic • Enterobacteriaceace (ISO 21528-2), • Pseudomonas sp. (EN ISO 13720), • Brochothrix thermosphacta • Anaerobic enumeration of sulfito-reducing bacteria (NF V08-061), • Challenge test Listeria monocytogenes (NF-EN ISO 11290-2). • Challenge test Salmonella (NF-EN ISO 6579-1).

In the next assay the test system is lactic flora. Put plainly: Spoilage analysis of cooked emulsified sausage: lactic flora. The following applies: cooked emulsified sausage during storage. Here is the method:
as §1, §2, §3, §4

For the next assay, the system named is Listeria monocytogenes. Particulars: fresh ground sausage, d8.

As for lactate, in assay [1], the “Growth of total flora” value is recorded as “normal growth”. Besides, the “Growth of lactic flora” value with lactic flora was “normal growth”. Further, in the assay with Listeria monocytogenes, the “Δ log cfu/g of Listeria growth versus untreated control” value is given as −0.9 log cfu/g.
